Laboratory results as given in ChEMBL document CHEMBL1121402, “Antitumor agents: diazomethyl ketone and chloromethyl ketone analogues prepared from N-tosyl amino acids” (1980).

What was measured:
[1] = species: Mus musculus; test: Percentage inhibition as antitumor activity in carcinoma CF1 male mice.; type: functional; design: concentration or dose not given beside the values
[2] = test system: P388; test: Survival of the mice for average number of days; expressed as average survival days; type: functional, Mus musculus
[3] = test system: P388; test: T/C expresses antileukemic activity measured as tested over that of control.; type: functional, Mus musculus
[4] = Screening of Ehrlich ascites carcinoma cells in mice at 20 mg/kg/day intraperitoneally.; type: functional, Mus musculus; settings: route intraperitoneal
[5] = species: Mus musculus; test: Anticarcinoma activity of Diazomethyl Ketone against Ehrlich ascites Carcinoma pharmacological screens were reported; 5/8; type: functional
[6] = species: Mus musculus; test: Volume of fluid collected 8 days after tumor transplantation in mice.; type: functional; design: unit not given beside the values
[7] = species: Mus musculus; test: Anticarcinoma activity of Diazomethyl Ketone against Ehrlich ascites Carcinoma pharmacological screens were reported; 6/6; type: functional
[8] = species: Mus musculus; test: Anticarcinoma activity of Diazomethyl Ketone against Ehrlich ascites Carcinoma pharmacological screens were reported; 5/6; type: functional
[9] = species: Mus musculus; test: Volume of ascrit fluid collected 8 days after tumor transplantation in mice; type: functional
[10] = species: Mus musculus; test: Anticarcinoma activity of Diazomethyl Ketone against Ehrlich ascites Carcinoma pharmacological screens were reported; 8/8; type: functional
[11] = test system: P388; test: T/C expresses antileukemic activity measured as tested over that of control; T/C >/= 120 for significant activity; type: functional, Mus musculus
[12] = test system: Mus musculus; test: Screening of Ehrlich ascites carcinoma cells in mice at 20 mg/kg/day, intraperitoneally; type: functional; settings: route intraperitoneal
[13] = test system: P388; test: T/C expresses antileukemic activity measured as tested over that of control; type: functional, Mus musculus
[14] = species: Mus musculus; test: Anticarcinoma activity of Diazomethyl Ketone against Ehrlich ascites Carcinoma pharmacological screens were reported; 12/12; type: functional
[15] = species: Mus musculus; test: Anticarcinoma activity of Diazomethyl Ketone against Ehrlich ascites Carcinoma pharmacological screens were reported; 7/8; type: functional

SMILES	Inhibition [1]	Survival [2]	T/C [3]	ascrit [4]	Volume of ascrit fluid [6]	Survival after 10 days [7]	Survival after 10 days [8]	also measured
CCC(C)C(NS(=O)(=O)c1ccc(C)cc1)C(=O)CCl (stereo unspecified)	86.6%	10.5 days	109	34.5	1.34	–	–	Survival after 10 days [5]: 5
Cc1ccc(S(=O)(=O)NCC(=O)C=[N+]=[N-])cc1	99.5%	–	–	56	0.03	6	–	–
Cc1ccc(S(=O)(=O)NCCC(=O)CCl)cc1	99.9%	9.8 days	101	0.1	0.02	–	5	–
Cc1ccc(S(=O)(=O)N2C(=O)CCC2C(=O)C=[N+]=N)cc1 (stereo unspecified)	94.4%	–	–	32	0.6	6	–	–
Cc1ccc(S(=O)(=O)NC(C)C(=O)C=[N+]=[N-])cc1 (stereo unspecified)	87.1%	11.6 days	120	–	1.02	–	5	–
C=COC(=O)C(Cc1ccc(O)cc1)NS(=O)(=O)c1ccc(C)cc1 (stereo unspecified)	75%	–	–	17.5	4.92	6	–	–
Cc1ccc(S(=O)(=O)NCCC(=O)C=[N+]=[N-])cc1	78.8%	11.5 days	119	44	1.66	6	–	–
Cc1ccc(S(=O)(=O)NC(C(=O)CCl)C(C)C)cc1 (stereo unspecified)	91.4%	–	–	46.9	–	6	–	Volume of ascrit fluid [9]: 0.63
Cc1ccc(S(=O)(=O)NC(C)C(=O)CCl)cc1 (stereo unspecified)	78.4%	–	–	46.5	1.6	–	–	Survival after 10 days [10]: 8
Cc1ccc(S(=O)(=O)NC(C(=O)C=[N+]=[N-])C(C)C)cc1 (stereo unspecified)	85.5%	–	–	52.7	0.93	6	–	–
Cc1ccc(S(=O)(=O)N2CCC[C@H]2C(=O)C=[N+]=[N-])cc1	92.7%	–	–	39.8	0.63	6	–	–
Cc1ccc(S(=O)(=O)NC(Cc2ccc(O)cc2)C(=O)OCC#N)cc1 (stereo unspecified)	56%	–	–	15.8	9.36	–	5	–
Cc1ccc(S(=O)(=O)NC(CC(C)C)C(=O)C=[N+]=[N-])cc1 (stereo unspecified)	92.2%	12.1 days	–	42.5	0.63	6	–	T/C [11]: 125
Cc1ccc(S(=O)(=O)N2CCCC2C(=O)CCl)cc1 (stereo unspecified)	76.5%	10.2 days	106	30	2.7	–	–	Survival after 10 days [5]: 5
C=COC(=O)C(Cc1ccccc1)NS(=O)(=O)c1ccc(C)cc1 (stereo unspecified)	56.8%	–	–	19.2	7.74	–	5	–
Sc1ncnc2nc[nH]c12 [MERCAPTOPURINE ANHYDROUS]	99.9%	–	–	–	0.3	6	–	ascrit [12]: 0.7
Cc1ccc(S(=O)(=O)N[C@H](C)C(=O)CCl)cc1	98.6%	11 days	114	18.9	0.25	–	5	–
Cc1ccc(S(=O)(=O)NCCCCCC(=O)C=[N+]=[N-])cc1	93.8%	11.8 days	122	42.5	0.5	–	5	–
CCC(C)C(NS(=O)(=O)c1ccc(C)cc1)C(=O)C=[N+]=[N-] (stereo unspecified)	74.7%	12.1 days	–	45.4	1.92	–	5	T/C [11]: 126
O=c1[nH]cc(F)c(=O)[nH]1 [FLUOROURACIL]	0%	9.66 days	–	32.4	0.98	–	–	T/C [13]: 100; Survival after 10 days [14]: 12
Cc1ccc(S(=O)(=O)NCC(=O)CCl)cc1	99.9%	13.2 days	–	0.01	0.04	–	5	T/C [11]: 137
Cc1ccc(S(=O)(=O)NCCCCCC(=O)CCl)cc1	99.9%	11.2 days	116	0.01	0.02	–	5	–
N[C@@H](Cc1ccc(N(CCCl)CCCl)cc1)C(=O)O [MELPHALAN]	99.9%	–	–	0.1	3	6	–	–
N#CCOC(=O)C(Cc1ccc(O)cc1)NC(=O)OCc1ccccc1 (stereo unspecified)	38%	–	–	19.7	10.82	6	–	–
Cc1ccc(S(=O)(=O)NC(CC(C)C)C(=O)CCl)cc1 (stereo unspecified)	80.4%	10.3 days	107	25.5	2.65	–	–	Survival after 10 days [10]: 8
Cc1ccc(S(=O)(=O)N2C(=O)CCC2C(=O)CCl)cc1 (stereo unspecified)	91.4%	12.8 days	–	31	0.95	–	–	Survival after 10 days [15]: 7; T/C [11]: 133
